Here are results for 35 compounds from ChEMBL document CHEMBL5528074 (J Med Chem, 2024).

Series [1] has as its target T1, G-protein coupled receptor 183 (Homo sapiens, UniProt P32249).
Description: Antagonist activity at GPR183 (unknown origin) transfected in HEK293 cells incubated for 30 mins by Glosensor cAMP assay
A short description of series [2]: Half life in C57BL/6 mouse at 1 mg/kg, iv measured upto 24 hrs by LC-MS/MS analysis. It counts as ADME, organism-based. The following applies: in vivo.
Series [3] is described as follows: Cmax in C57BL/6 mouse at 1 mg/kg, iv measured upto 24 hrs by LC-MS/MS analysis. It is filed as ADME, organism-based. The following applies: in vivo.
Series [4] in a line: AUC infinity in C57BL/6 mouse at 1 mg/kg, iv measured upto 24 hrs by LC-MS/MS analysis. Particulars: in vivo. It is filed as ADME, organism-based.
A short description of series [5]: Apparent volume of distribution in C57BL/6 mouse at 1 mg/kg, iv measured upto 24 hrs by LC-MS/MS analysis. It counts as ADME, organism-based. Particulars: in vivo, read-out: Vz.
The nature of series [6]: Clearance in C57BL/6 mouse at 1 mg/kg, iv measured upto 24 hrs by LC-MS/MS analysis. It is filed as ADME, organism-based. Particulars: in vivo.
Series [7] is described as follows: Half life in C57BL/6 mouse at 3 mg/kg, po measured upto 24 hrs by LC-MS/MS analysis. It is filed as ADME, organism-based. Particulars: in vivo.
Series [8] is described as follows: Cmax in C57BL/6 mouse at 3 mg/kg, po measured upto 24 hrs by LC-MS/MS analysis. It is filed as ADME, organism-based. The following applies: in vivo.
A short description of series [9]: AUC infinity in C57BL/6 mouse at 3 mg/kg, po measured upto 24 hrs by LC-MS/MS analysis. The following applies: in vivo. It is filed as ADME, organism-based.
Series [10] is described as follows: Oral bioavailability in C57BL/6 mouse at 3 mg/kg measured upto 24 hrs by LC-MS/MS analysis. It counts as ADME, organism-based. The following applies: in vivo.
The subject of a further series is U-937. Description: Antimigratory activity against human U-937 cells assessed as inhibition of 7alpha,25-dihydroxycholesterol induced cell migration by CCK-8 method. It counts as functional, cell-based.
Series [11] can be described thus: Metabolic stability in mouse liver microsomes assessed as intrinsic clearance. The following applies: read-out: CLH. It counts as ADME, Microsome.
The target in series [12] is T1, G-protein coupled receptor 183. Kind of series: Antagonist activity at GPR183 (unknown origin) incubated for 30 mins by calcium mobilization assay. It counts as functional.
The target is the same in series [13]. Kind of series: Agonist activity at GPR183 (unknown origin) transfected in HEK293 cells assessed as reduction in forskolin induced cAMP generation incubated for 30 mins by Glosensor cAMP assay. It counts as functional, cell-based. A general note: Changes in cAMP serve as a functional read-out for many G protein-coupled receptors.
Series [14] shares this target. Kind of series: Agonist activity at GPR183 (unknown origin) transfected in HEK293 cells cotransfected with CRE-luciferase plasmid assessed as impairment of forskolin induced luciferase activity preincubated for 30 mins followed by forskolin induction and measured after 4 hrs by dual luciferase assay. It counts as functional, cell-based.
Series [15] has the same target. Description: Agonist activity at GPR183 (unknown origin) transfected in HEK293 cells co-expressing LgBiT-fused SmBiT-beta-arrestin assessed as beta-arrestin recruitment using nanoluciferase as substrate incubated for 30 mins by bioluminescence based NanoBiT assay. It counts as functional, cell-based. On the technique in general: Activated receptors often draw arrestin, which recruitment assays turn into a signal.

T1 sequence (P32249 whole entry): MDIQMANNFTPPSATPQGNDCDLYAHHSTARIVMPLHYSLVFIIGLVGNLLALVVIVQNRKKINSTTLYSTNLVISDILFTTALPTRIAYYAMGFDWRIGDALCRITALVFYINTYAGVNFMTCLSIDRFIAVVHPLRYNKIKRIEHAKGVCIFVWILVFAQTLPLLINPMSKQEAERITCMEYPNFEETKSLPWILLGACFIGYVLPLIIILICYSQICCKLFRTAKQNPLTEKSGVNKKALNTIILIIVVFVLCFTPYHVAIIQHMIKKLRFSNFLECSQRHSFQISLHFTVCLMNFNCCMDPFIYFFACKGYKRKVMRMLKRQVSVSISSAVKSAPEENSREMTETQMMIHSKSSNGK

Compound `Nc1nc2ccc(C(=O)N3CCN(C(=O)/C=C/c4ccc5c(c4)OC(F)(F)O5)CC3)cc2s1` had an IC50 in series [1] of 43.6 nM. Same read-out and setting: in the case of `COc1ccc(NC(=O)CC2CCN(C(=O)/C=C/c3ccc(Br)cc3)CC2(F)F)cc1` (stereo not drawn) it was 54.2 nM; in that of `CNc1nc2ccc(C(=O)N3CCN(C(=O)/C=C/c4ccc(Br)cc4)CC3)cc2s1`, 6.23 nM. On the same count and under the same terms, in the case of `Cn1ccc2ccc(C(=O)N3CCN(C(=O)/C=C/c4ccc(Br)cc4)CC3)cc21` it was 7.9 nM; in that of `O=C(Nc1nc2ccc(C(=O)N3CCN(C(=O)/C=C/c4ccc(Br)cc4)CC3)cc2s1)C1CC1`, 76.9 nM. As for `COc1ccc(C(=O)N2CCN(C(=O)/C=C/c3ccc(Br)cc3)CC2)cc1`, the half-life in series [2] was 1.17 h; in [7], 2.19 h. The Cmax worked out at 612 ng/mL in [3] and 640 ng/mL in series [8]. Also, the AUC(0-inf) was 966 ng·h/mL in series [4] and 2070 ng·h/mL in series [9]. Moreover, the Vd in series [5] is 1.75 L/kg. In [6], this compound showed a clearance of 17.3 mL/min/kg. In series [10], this compound came in with a bioavailability of 71.4%. In addition, the IC50 in the series on U-937 stood at 4.5 nM. In addition, in [11], the microsomal CLint came to 46 µL/min/mg. With `Nc1nc2ccc(C(=O)N3CCN(C(=O)/C=C/c4ccc5c(c4)CCO5)CC3)cc2s1`, inhibition in [1] was half-maximal at 386 nM (IC50).

In the case of `O=C(COc1ccc2ccccc2c1)N1CCN(C(=O)Cc2ccccc2)CC1`, the microsomal CLint in [11] was found to be 301 µL/min/mg.

Turning to `Cc1nc2ccc(C(=O)N3CCN(C(=O)/C=C/c4ccc(Br)cc4)CC3)cc2[nH]1`, the IC50 in [1] was more than 10000 nM. Take `O=C(/C=C/c1ccc(Br)cc1)N1CCN(C(=O)c2ccc3[nH]c(=O)[nH]c3c2)CC1`: in series [1], the IC50 was more than 10000 nM.

In series [1], `COc1ccc(NC(=O)CC2CCN(C(=O)/C=C/c3ccc(Br)cc3)CC2)cc1` came in with an IC50 of 19.7 nM. Same read-out and setting: the figure for `Nc1nc2ccc(C(=O)N3CCN(C(=O)/C=C/c4ccc(F)c(F)c4)CC3)cc2s1` is 1250 nM. Regarding `COc1ccc(C(=O)NCC2(F)CCN(C(=O)/C=C/c3ccc(Br)cc3)CC2)cc1`, 66.2 nM corresponded to half-maximal inhibition in series [1] (IC50). On the same count and under the same terms, the figure for `Nc1nc2ccc(C(=O)N3CCN(C(=O)/C=C/c4ccc(F)cc4)CC3)cc2s1` is 866 nM. Regarding `COc1cc2c(cc1OC)CN(C(=O)NOCc1ccccc1)CC2`, the IC50 in series [12] turned out to be 13.9 nM. The same measure, in the same setting: in the case of `COc1cc(C(C)NC(=O)Cc2c(C)nc(C)[nH]c2=O)cc(OC)c1OC` (stereo not drawn) it was 8.31 nM. On to `COc1ccc(C(=O)N2CC3CCC(C2)N3C(=O)/C=C/c2ccc(Br)cc2)cc1`, for which the IC50 in [1] is more than 10000 nM.

`Nc1nc2ccc(C(=O)N3CCN(C(=O)/C=C/c4ccc(Cl)cc4)CC3)cc2s1` showed an IC50 in series [1] of 15.9 nM. In [1], `N#Cc1ccc(/C=C/C(=O)N2CCN(C(=O)c3ccc4nc(N)sc4c3)CC2)cc1` returned an IC50 of 260 nM. `Nc1nc2ccc(C(=O)N3CCN(C(=O)/C=C/c4ccc(C(F)(F)F)cc4)CC3)cc2s1` came in with an IC50 in series [1] of 30.1 nM. Still for that read-out and setting: in the case of `Nc1nc2ccc(C(=O)N3CCN(C(=O)/C=C/c4ccc(C(F)(F)F)c(Cl)c4)CC3)cc2s1` it was 74.5 nM; in that of `Nc1nc2ccc(C(=O)N3CCN(C(=O)/C=C/c4ccc(F)cc4F)CC3)cc2s1`, 8310 nM; in that of `Cn1cnc2cc(C(=O)N3CCN(C(=O)/C=C/c4ccc(Br)cc4)CC3)ccc21`, 442 nM. Turning to `C[C@H](CCCC(C)(C)O)[C@H]1CCC2C3C(CC[C@@]21C)[C@@]1(C)CC[C@H](O)CC1=C[C@H]3O` (stereo partly drawn), the EC50 was determined as 0.15 nM in series [13], 3.22 nM in series [14] and 4.63 nM in [15]. The Activity result in [14] (filed as agonist, time 4.5 hrs) is “Dose-Dependent Effect”.

In series [1], `Cc1c[nH]c2cc(C(=O)N3CCN(C(=O)/C=C/c4ccc(Br)cc4)CC3)ccc12` registered an IC50 of 18.9 nM. Same read-out and setting: in the case of `Cc1cc2ccc(C(=O)N3CCN(C(=O)/C=C/c4ccc(Br)cc4)CC3)cc2[nH]1` it was 7.61 nM; in that of `COc1ccc(C(=O)NCC2CCN(C(=O)/C=C/c3ccc(Br)cc3)CC2)cc1`, more than 10000 nM; in that of `CC(=O)Nc1nc2ccc(C(=O)N3CCN(C(=O)/C=C/c4ccc(Br)cc4)CC3)cc2s1`, 18.9 nM. The same measure, in the same setting: in the case of `O=C(/C=C/c1ccc(Br)cc1)N1CCN(C(=O)c2ccc3nc(C(F)(F)F)sc3c2)CC1` it was 2.54 nM. For `COc1ccc(C(=O)N2CC3CCC2CN3C(=O)/C=C/c2ccc(Br)cc2)cc1` (stereo not drawn), in series [1], the IC50 is more than 10000 nM. Turning to `O=C(/C=C/c1ccc(Br)cc1)N1CCN(C(=O)c2ccc3nc(S)[nH]c3c2)CC1`, in series [1], the IC50 was more than 10000 nM. In the case of `CN(C)c1nc2ccc(C(=O)N3CCN(C(=O)/C=C/c4ccc(Br)cc4)CC3)cc2s1`, half-maximal inhibition in [1] (IC50) required 54.9 nM. `COc1ccc(C(=O)NC23CC(NC(=O)/C=C/c4ccc(Br)cc4)(C2)C3)cc1` showed an IC50 in [1] of more than 10000 nM.

As to `COc1ccc(NC(=O)C(F)(F)C2CCN(C(=O)/C=C/c3ccc(Br)cc3)CC2)cc1`, the IC50 in [1] worked out at 5.7 nM. On the same count and under the same terms, in the case of `O=C(/C=C/c1ccc(Br)cc1)N1CCN(C(=O)c2ccc3ncsc3c2)CC1` it was 3.05 nM.

What is called IC50 is the concentration needed to halve the response being measured. Broadly, the half-life is the time in which the quantity being followed falls by half. A higher half-life goes with slow loss. Usually Cmax stands for the peak of the concentration-time curve. A word on the AUC(0-inf): it is the area under the concentration-time curve extrapolated to infinity. Usually clearance stands for the rate of elimination divided by the concentration. A high value points to efficient removal. The term bioavailability denotes the share of a dose that reaches the circulation, judged against a reference dose that is usually intravenous. A low value points to poor availability. What is called EC50 is the concentration giving half of the maximal effect.
